The source of these data is patent publication US9296698B2, “Amino heteroaryl compounds as beta-secretase modulators and methods of use” (Amgen Inc., priority 2009, dated 2016).

In assay [1] the test system is Aβ40 in conditioned medium of cells stably expressing Amyloid Precursor Protein (APP). Kind of assay: In vitro BACE cell-based assay (HEK cell assay), Aβ40 sandwich ELISA. As to conditions: Homo sapiens, HEK293, 24 h, IC50 range symbols, Table 1; Aβ40, 24 h incubation; read-out: HEK cell assay. The procedure, abridged:
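Cells stably expressing APP received 10-point compound dilutions (top 100 μM or 10 μM; 0.1% DMSO) for 24 h. Secreted Aβ40 was quantified by sandwich ELISA (pAb40 capture, biotinylated 6E10 detection, europium time-resolved fluorescence). IC50 was derived from percent inhibition versus concentration.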
On the technique in general: An ELISA detects its analyte on a solid surface through an enzyme-linked reagent.

The target of assay [2] is BACE 1 (Beta Secretase enzyme) (Homo sapiens, UniProt P56817). In words: In vitro enzymatic BACE FRET assay. Type of assay: biochemical. The essentials:
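BACE activity read by FRET: peptide substrate (50 nM) carrying fluorophore and quencher across the cleavage site, incubated one hour in 0.05 M acetate pH 4.2, 10% DMSO final, 100 uM genapol. Tris addition raises pH to neutrality to stop the reaction before fluorescence is read.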

Where [3] appears, read: IC50 range symbols, Table 1, read-out: BACE 1 FRET assay.
The mark [4] stands for this setting: bound stated, read-out: IC50 value in the FRET BACE enzyme assay.

Where two headings read alike, the source gives them in different places. A value given as a limit tells only on which side of the number the result lay.

BACE 1 (Beta Secretase enzyme), sequence (P56817 46-501, species assumed): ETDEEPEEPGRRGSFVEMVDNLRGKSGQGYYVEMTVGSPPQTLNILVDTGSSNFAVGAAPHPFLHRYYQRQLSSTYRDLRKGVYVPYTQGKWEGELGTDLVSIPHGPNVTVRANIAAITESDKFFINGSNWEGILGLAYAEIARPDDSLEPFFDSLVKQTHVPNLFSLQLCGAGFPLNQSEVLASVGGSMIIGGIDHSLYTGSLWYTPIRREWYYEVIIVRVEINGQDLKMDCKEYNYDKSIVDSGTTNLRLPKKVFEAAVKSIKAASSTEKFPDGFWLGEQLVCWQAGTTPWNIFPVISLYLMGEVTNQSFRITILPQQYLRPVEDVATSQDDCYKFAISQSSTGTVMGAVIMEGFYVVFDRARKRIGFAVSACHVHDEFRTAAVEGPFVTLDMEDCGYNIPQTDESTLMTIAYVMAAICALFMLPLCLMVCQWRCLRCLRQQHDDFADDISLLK

Consider `Cc1ccccc1-c1ccc2nc(N)c(C[C@@H](C)C(=O)NCc3ncccn3)cc2c1` [Example 85, (R)-3-(2-amino-6-o-tolylquinolin-3-yl)-2-methyl-N-(pyrimidin-2-ylmethyl)propanamide], for which the IC50 in assay [1] and in assay [2] (setting [3]) was under 500 nM in each case.

`Cc1cccnc1-c1ccc2nc(N)c(CC(C)C(=O)NC[C@H]3CCCOC3)cc2c1` (stereo partly drawn) [Example 86, 3-(2-amino-6-(3-methylpyridin-2-yl)quinolin-3-yl)-2-methyl-N-(((R)-tetrahydro-2H-pyran-3-yl)methyl)propanamide]: the IC50 in assay [1] and in assay [2] (setting [3]) was under 500 nM each time.

Consider `Cc1cccnc1-c1ccc2nc(N)c(CC(C)C(=O)NCC3CCOCC3)cc2c1` (centres unmarked) [Example 88, 3-(2-amino-6-(3-methylpyridin-2-yl)quinolin-3-yl)-2-methyl-N-((tetrahydro-2H-pyran-4-yl)methyl)propanamide], for which the IC50 was 500 to 1000 nM in assay [1] and under 500 nM in assay [2] (setting [3]).

Regarding `Cc1cccnc1-c1ccc2nc(N)c(CC(C)C(=O)NC[C@@H]3CCCOC3)cc2c1` (stereo partly drawn) [Example 89, 3-(2-amino-6-(3-methylpyridin-2-yl)quinolin-3-yl)-2-methyl-N-(((S)-tetrahydro-2H-pyran-3-yl)methyl)propanamide], the IC50 in assay [1] was 500 to 1000 nM; in assay [2] (setting [3]), under 500 nM.

As to `Cc1ccccc1-c1ccc2nc(N)c(CC(C)C(=O)NCC3CCOC3)cc2c1` (centres unmarked) [Example 91, 3-(2-amino-6-o-tolylquinolin-3-yl)-2-methyl-N-((tetrahydrofuran-3-yl)methyl)propanamide], the IC50 is 1000 to 5000 nM in assay [1] and under 500 nM in assay [2] (setting [3]).

As for `Cc1ccccc1-c1ccc2nc(N)c(CC(C)C(=O)NCC3CCCOC3)cc2c1` (centres unmarked) [Example 92, 3-(2-amino-6-o-tolylquinolin-3-yl)-2-methyl-N-((tetrahydro-2H-pyran-3-yl)methyl)propanamide], the IC50 in assay [1] and in assay [2] (setting [3]) was under 500 nM throughout.

On to `Cc1ccccc1-c1ccc2nc(N)c(CC(C)C(=O)NCc3cnn(C)c3)cc2c1` (centres unmarked) [Example 94, 3-(2-amino-6-o-tolylquinolin-3-yl)-2-methyl-N-((1-methyl-1H-pyrazol-4-yl)methyl)propanamide], for which the values for the IC50 in assay [1] and in assay [2] (setting [3]) were 1000 to 5000 nM and under 500 nM, respectively.

On to `Cc1ccccc1-c1cc2cc(CCC(=O)NCC3CCCCC3)c(N)nc2cc1C` [Example 95, 3-(2-amino-7-methyl-6-(2-methylphenyl)-3-quinolinyl)-N-(cyclohexylmethyl)propanamide], for which the IC50 is over 5000 nM in assay [1] and under 500 nM in assay [2] (setting [3]).

With `Cc1ccccc1-c1cc2cc(CCC(=O)NCC3CCCCC3)c(N)nc2cc1F` [Example 96, 3-(2-amino-7-fluoro-6-(2-methylphenyl)-3-quinolinyl)-N-(cyclohexylmethyl)propanamide], the values for the IC50 in assay [1], in assay [2] (setting [3]) and in assay [2] (setting [4]) were 1000 to 5000 nM, under 500 nM and under 50 nM, respectively.

Turning to `Cc1cccnc1-c1cc2cc(CC(C)C(=O)NCC3CCOCC3)c(N)nc2cc1F` (centres unmarked) [Example 97, 3-(2-amino-7-fluoro-6-(3-methyl-2-pyridinyl)-3-quinolinyl)-2-methyl-N-(tetrahydro-2H-pyran-4-ylmethyl)propanamide], the IC50 is 1000 to 5000 nM in assay [1] and under 500 nM in assay [2] (setting [3]).

`Cc1cccnc1-c1cc2cc(CC(C)C(=O)NCCC(C)(C)C)c(N)nc2cc1F` (centres unmarked) [Example 98, 3-(2-amino-7-fluoro-6-(3-methyl-2-pyridinyl)-3-quinolinyl)-N-(3,3-dimethylbutyl)-2-methylpropanamide]: the IC50 in assay [1] is under 500 nM; in assay [2] (setting [3]) it was under 500 nM; in assay [2] (setting [4]) it was under 50 nM.

Regarding `Cc1cccnc1-c1ccc2nc(N)c(CC(C)C(=O)NCCC3(C)CC3)cc2c1` (centres unmarked) [Example 102, 3-(2-amino-6-(3-methylpyridin-2-yl)quinolin-3-yl)-2-methyl-N-(2-(1-methylcyclopropyl)ethyl)propanamide], the IC50 in assay [1] and in assay [2] (setting [3]) was under 500 nM each time.
